Data as given in article PMC5424180, “The molecular mechanism of the type IVa pilus motors” (Nature Communications, 2017).
Blank lines part the entries; values can stand above or below the compound they belong to.

Experiments:
PilB (PilBGm) [1] = biological target: T1, PilB (PilBGm) (Geobacter metallireducens, UniProt Q39VU7); assay: X-ray crystallography, […] Å (anisotropic); conditions: Mg2+; pH 7.6; 20 °C; no exogenous nucleotide, ADP co-purified from E. coli; four closed ATP binding sites
T1 construct: hexamer; residues 181-568 (N2D + CTD) built; primer-encoded start MQASRL, end TVADD

PilB (PilBGm) [2] = biological target: T1, PilB (PilBGm); assay: X-ray crystallography, […] Å; conditions: Mg2+; pH 7.0; 20 °C; non-saturating AMP-PNP; ATP binding sites (closed full occupancy, open ~70%)
[3] = biological target: PilB from Geobacter metallireducens (Geobacter metallireducens); assay: crystal structure; PilB:AMP-PNP; non-saturating AMP-PNP (50 μM final to 120 μM PilB); 11% PEG3350, 0.1 M magnesium formate, 0.1 M Tris pH 7.0, vapour diffusion at 20 °C; six chains in the asymmetric unit
[4] = biological target: PilB from Geobacter metallireducens (Geobacter metallireducens); assay: crystal structure; PilB:ADP; no exogenous nucleotide added; 13% PEG3350, 0.1 M magnesium formate, 0.1 M Tris pH 7.6, vapour diffusion at 20 °C; three chains in the asymmetric unit, hexamer from crystal packing

T1 sequence (Q39VU7 entry or part of it): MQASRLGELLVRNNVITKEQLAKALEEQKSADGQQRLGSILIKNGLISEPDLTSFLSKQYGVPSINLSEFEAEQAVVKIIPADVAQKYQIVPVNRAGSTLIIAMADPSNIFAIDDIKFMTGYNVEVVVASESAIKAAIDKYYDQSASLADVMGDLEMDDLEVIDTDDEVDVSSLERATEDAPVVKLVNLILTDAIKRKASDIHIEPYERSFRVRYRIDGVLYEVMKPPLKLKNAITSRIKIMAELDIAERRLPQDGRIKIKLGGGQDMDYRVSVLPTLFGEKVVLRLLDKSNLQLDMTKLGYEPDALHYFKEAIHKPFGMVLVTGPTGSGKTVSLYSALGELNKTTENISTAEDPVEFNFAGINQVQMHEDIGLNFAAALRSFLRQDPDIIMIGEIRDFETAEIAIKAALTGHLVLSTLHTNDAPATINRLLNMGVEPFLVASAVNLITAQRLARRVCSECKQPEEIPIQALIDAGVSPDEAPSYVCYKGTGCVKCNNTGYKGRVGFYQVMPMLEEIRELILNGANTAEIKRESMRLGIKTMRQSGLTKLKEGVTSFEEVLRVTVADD

Compound: Nc1ncnc2c1ncn2[C@@H]1O[C@H](COP(=O)(O)OP(=O)(O)O)[C@@H](O)[C@H]1O [ADP]
X-ray crystallography, 3.4 Å (anisotropic) (PilB (PilBGm) [1]): In four sites, ADP and magnesium best fit the electron density

Compound: Nc1ncnc2c1ncn2[C@@H]1O[C@H](COP(=O)(O)OP(=O)(O)NP(=O)(O)O)[C@@H](O)[C@H]1O [AMP-PNP]
X-ray crystallography, 2.3 Å (PilB (PilBGm) [2]): Between two packing units, AMP-PNP, magnesium, and several highly ordered waters best fit

stoichiometry N [3]: 6
stoichiometry N [4]: 6
Compound: PilB from Geobacter metallireducens (enzyme)
